One assay deals with GluN1/GluN2A NMDARs (Rattus norvegicus, UniProt P35439+Q00959). Description: Two-electrode voltage-clamp recordings, Xenopus laevis oocytes expressing GluN1/GluN2A. It is filed as cell-based. The note with it: for IC50: glutamate/glycine 100/30 µM; for EC50: read-out: EC50 (µM) [conf. int.]; for Emax: read-out: Maximal Degree of Modulation (% of control). As to the method:
(§1) cDNAs for rat wild type NMDAR subunits GluN1-1a (GenBank U11418, U08261; hereafter GluN1 or GluN1a), GluN1-1b (U08263, hereafter GluN1b), GluN2A (D13211), GluN2B (U11419), GluN2C (M91563), and GluN2D (L31611, modified as described in [Monyer et al., 1994]) were provided by Drs. S. Heinemann (Salk Institute), S. Nakanishi (Kyoto University), and P. Seeburg (University of Heidelberg). Site-directed mutagenesis was conducted using the QuikChange kit (Agilent Technologies, Santa Clara, CA) following the recommended protocol. DNA sequencing was used to verify all mutations. The amino acid numbering system started with the initiating methionine as residue number one. For expression in Xenopus laevis oocytes, cDNA constructs were linearized by restriction enzymes, and subsequently used to synthesize in vitro cRNAs following the manufacturer’s protocol (mMessage mMachine, Ambion, ThermoFisher Scientific, Waltham, MA).
(§2) Xenopus laevis stage VI oocytes (Ecocyte Biosciences, Austin, TX) were injected as previously described ([Hansen et al., 2013]) 2–7 days prior to recording with cRNA encoding the NMDAR subunits and stored at 15°C in media containing (in mM) 88 NaCl, 2.4 NaHCO3, 1 KCl, 0.33 Ca(NO3)2, 0.41 CaCl2, 0.82 MgSO4, 5 Tris-HCl; pH was adjusted to 7.4 with NaOH and the solution supplemented with 1 U/mL penicillin, 0.1 mg/mL gentamicin sulfate, and 1 μg/mL streptomycin. Two-electrode voltage-clamp recordings were performed at room temperature (21–23°C) using different internal solutions for voltage and current electrodes (0.3 M and 3.0 M KCl, respectively). All extracellular solutions were made from a solution containing (in mM) 90 NaCl, 1 KCl, 10 HEPES, 0.5 BaCl2, 0.01 EDTA (pH 7.4 with NaOH). Experiments were performed using an eight port Modular Valve Positioner (Hamilton Company, Reno, NV) and controlled by custom software (Easy Oocyte, Emory University, Atlanta, GA)to exchange solutions. Oocyte currents were recorded at a holding potential of −40 mV using a two-electrode voltage-clamp amplifier (OC-725B or OC-725C, Warner Instruments, Hamden, CT). […] In MTSEA experiments, fresh MTSEA solutions (0.2 mM) were prepared and utilized in less than 30 min to limit compound degradation.
(§3) Measurements are given as mean ± SEM unless otherwise indicated. The number of replicate experiments used was chosen to ensure a power level of at least 0.80 when α = 0.05 and when detecting appropriate effect sizes. EC50 and IC50 values and confidence intervals reported were calculated by averaging the log(EC50) or log(IC50) value, determining confidence intervals for mean log(EC50) or log(IC50), and converting back to units of molarity. Statistical significance evaluations (α set to 0.05) were performed using a one-way ANOVA with Dunnett’s multiple comparison test, a paired t–test, or other appropriate tests as described.
A general note: Two-electrode voltage clamp holds a large cell at a set potential and records current.

In a further assay the target is GluN1/GluN2B NMDARs (Rattus norvegicus, UniProt P35439+Q00960). Description: Two-electrode voltage-clamp recordings, Xenopus laevis oocytes expressing GluN1/GluN2B. Format: cell-based. The note with it: for Emax: read-out: Maximal Degree of Modulation (% of control). As to the method: as §1, §2, §3
[1] abbreviates: no second modulator (+EU1794-27 0 µM), read-out: IC50 (µM) [conf. int.].
The mark [2] stands for this setting: saturating glutamate/glycine 100/30 µM, mean [95% CI], - = not fit, response at 30 µM differed by no more than 15% from control.
Setting [3] is: saturating glutamate/glycine 100/30 µM, mean ± SEM.
Setting [4] is: sub-saturating glutamate/glycine 0.6/0.2 µM.
The mark [5] stands for this setting: read-out: IC50 (µM) [conf. int.].
Setting [6] is: saturating glutamate/glycine 100/30 µM, mean [95% CI], - = not fit, response at 30 µM differed by no more than 15% from control, read-out: EC50 (µM) [conf. int.].
Where [7] appears, read: sub-saturating glutamate/glycine 1/0.3 µM.
[8] abbreviates: sub-saturating glutamate/glycine 1/0.3 µM, read-out: EC50 (µM) [conf. int.].
The mark [9] stands for this setting: sub-saturating glutamate/glycine 2/0.6 µM.

Where two headings read alike, the source gives them in different places. Marks after values point to notes of the source that are not given here.

Sequence of GluN1/GluN2A NMDARs (Q00959 23-1464, other chains not shown): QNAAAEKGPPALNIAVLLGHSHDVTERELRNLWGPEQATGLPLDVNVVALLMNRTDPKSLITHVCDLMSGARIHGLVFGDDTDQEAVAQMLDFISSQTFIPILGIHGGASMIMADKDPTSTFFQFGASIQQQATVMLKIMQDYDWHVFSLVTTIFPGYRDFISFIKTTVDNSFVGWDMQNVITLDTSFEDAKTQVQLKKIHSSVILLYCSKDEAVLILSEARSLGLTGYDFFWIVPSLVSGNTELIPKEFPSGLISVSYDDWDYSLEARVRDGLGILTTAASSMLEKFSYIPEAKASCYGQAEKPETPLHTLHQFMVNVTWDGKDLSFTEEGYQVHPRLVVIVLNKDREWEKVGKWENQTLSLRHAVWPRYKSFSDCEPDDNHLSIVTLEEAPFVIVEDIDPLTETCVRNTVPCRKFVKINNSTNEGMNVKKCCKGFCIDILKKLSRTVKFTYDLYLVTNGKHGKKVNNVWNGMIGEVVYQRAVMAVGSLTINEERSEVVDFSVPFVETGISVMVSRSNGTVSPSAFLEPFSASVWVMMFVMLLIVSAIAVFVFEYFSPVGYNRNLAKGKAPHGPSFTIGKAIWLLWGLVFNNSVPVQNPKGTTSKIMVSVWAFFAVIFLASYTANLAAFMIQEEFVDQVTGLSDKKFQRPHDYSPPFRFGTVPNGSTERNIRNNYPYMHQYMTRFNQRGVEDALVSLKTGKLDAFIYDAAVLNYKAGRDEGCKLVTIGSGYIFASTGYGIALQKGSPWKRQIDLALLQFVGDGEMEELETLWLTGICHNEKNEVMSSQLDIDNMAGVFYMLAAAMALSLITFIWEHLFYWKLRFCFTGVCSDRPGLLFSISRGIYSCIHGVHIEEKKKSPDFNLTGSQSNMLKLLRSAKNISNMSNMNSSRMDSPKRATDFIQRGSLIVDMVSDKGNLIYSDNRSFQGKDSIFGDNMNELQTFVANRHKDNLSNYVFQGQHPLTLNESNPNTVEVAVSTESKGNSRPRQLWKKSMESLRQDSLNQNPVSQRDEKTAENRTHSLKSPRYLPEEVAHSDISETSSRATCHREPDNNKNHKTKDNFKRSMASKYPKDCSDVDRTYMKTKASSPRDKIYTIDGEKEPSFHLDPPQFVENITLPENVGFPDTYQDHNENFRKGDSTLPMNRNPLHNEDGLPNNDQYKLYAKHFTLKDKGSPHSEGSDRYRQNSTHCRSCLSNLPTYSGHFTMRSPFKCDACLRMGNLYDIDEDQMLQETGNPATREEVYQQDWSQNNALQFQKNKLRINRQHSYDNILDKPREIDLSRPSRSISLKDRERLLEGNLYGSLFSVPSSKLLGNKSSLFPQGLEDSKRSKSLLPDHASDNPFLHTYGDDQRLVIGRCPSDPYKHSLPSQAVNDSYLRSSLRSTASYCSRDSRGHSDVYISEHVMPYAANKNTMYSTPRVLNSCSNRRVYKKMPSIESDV
Sequence of GluN1/GluN2B NMDARs (Q00960 27-1482, other chains not shown): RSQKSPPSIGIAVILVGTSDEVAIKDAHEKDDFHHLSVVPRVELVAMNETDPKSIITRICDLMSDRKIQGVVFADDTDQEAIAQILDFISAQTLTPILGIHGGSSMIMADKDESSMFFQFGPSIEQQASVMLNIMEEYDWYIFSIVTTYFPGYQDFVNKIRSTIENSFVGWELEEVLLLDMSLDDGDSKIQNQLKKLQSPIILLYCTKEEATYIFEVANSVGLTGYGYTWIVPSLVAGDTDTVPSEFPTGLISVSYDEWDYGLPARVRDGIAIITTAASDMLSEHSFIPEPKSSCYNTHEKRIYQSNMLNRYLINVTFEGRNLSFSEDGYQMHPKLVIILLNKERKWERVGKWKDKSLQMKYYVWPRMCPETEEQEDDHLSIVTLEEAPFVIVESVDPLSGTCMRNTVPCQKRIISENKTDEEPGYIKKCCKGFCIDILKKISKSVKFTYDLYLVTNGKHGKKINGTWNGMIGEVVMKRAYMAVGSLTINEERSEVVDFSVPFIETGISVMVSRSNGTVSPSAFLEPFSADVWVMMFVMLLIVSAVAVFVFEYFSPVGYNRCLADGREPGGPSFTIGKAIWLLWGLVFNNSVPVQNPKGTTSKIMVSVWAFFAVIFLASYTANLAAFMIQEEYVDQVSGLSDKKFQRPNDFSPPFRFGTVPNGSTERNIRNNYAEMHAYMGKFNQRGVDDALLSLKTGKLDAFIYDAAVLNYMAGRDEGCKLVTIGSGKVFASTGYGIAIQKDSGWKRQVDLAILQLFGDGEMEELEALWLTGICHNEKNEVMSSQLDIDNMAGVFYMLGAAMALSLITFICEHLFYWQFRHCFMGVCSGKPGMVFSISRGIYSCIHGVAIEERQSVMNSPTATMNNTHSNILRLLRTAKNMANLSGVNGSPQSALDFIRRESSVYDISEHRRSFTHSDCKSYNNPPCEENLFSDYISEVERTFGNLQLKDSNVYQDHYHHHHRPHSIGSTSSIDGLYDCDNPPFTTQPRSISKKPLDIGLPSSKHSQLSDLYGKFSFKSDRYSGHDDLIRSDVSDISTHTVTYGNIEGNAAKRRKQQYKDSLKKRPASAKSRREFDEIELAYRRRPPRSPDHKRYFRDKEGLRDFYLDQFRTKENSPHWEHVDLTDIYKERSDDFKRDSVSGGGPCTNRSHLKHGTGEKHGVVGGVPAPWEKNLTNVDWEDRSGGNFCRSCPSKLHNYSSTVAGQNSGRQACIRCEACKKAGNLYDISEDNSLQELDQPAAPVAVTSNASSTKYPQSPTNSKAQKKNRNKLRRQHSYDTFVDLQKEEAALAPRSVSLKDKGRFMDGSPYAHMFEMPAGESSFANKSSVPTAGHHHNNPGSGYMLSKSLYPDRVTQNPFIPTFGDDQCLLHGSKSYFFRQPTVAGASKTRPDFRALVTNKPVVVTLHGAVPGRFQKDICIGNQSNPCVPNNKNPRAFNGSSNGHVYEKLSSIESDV

Regarding `CCOC(=O)c1c(NC(=O)CC2SC(=N)NC2=O)sc2c1CCC(C)C2` (stereo not shown) [EU1794-2, ethyl 2-(2-(2-imino-4-oxothiazolidin-5-yl)acetamido)-6-methyl-4,5,6,7-tetrahydrobenzo[b]thiophene-3-carboxylate], the IC50 (as a rule, the point on the concentration scale where inhibition reaches its midpoint) on GluN1/GluN2A NMDARs (+EU1794-27 3 µM, read-out: EU1794-2 IC50 (µM) [conf. int.]) was 2.5 µM; at GluN1/GluN2A NMDARs (+EU1794-27 10 µM, read-out: EU1794-2 IC50 (µM) [conf. int.]), 3.6 µM; at GluN1/GluN2A NMDARs (+EU1794-27 20 µM, read-out: EU1794-2 IC50 (µM) [conf. int.]) it was 8 µM; on GluN1/GluN2A NMDARs (setting [1]), 0.6 µM; at GluN1/GluN2B NMDARs (+EU1794-27 10 µM, glutamate/glycine 100/30 µM, read-out: EU1794-2 IC50 (µM) [conf. int.]), 3.5 µM; on GluN1/GluN2B NMDARs (+EU1794-27 20 µM, glutamate/glycine 100/30 µM, read-out: EU1794-2 IC50 (µM) [conf. int.]), 12 µM. Moreover, the IC50 at GluN1/GluN2B NMDARs (setting [5]) is 1.2 µM. The EC50 (in general, the concentration giving half of the maximal effect) at GluN1/GluN2A NMDARs (setting [2]) came to 0.6 µM; at GluN1/GluN2A NMDARs (setting [4]) it was 1.8 µM; at GluN1/GluN2B NMDARs (setting [6]), 1.2 µM; on GluN1/GluN2B NMDARs (sub-saturating glutamate/glycine 0.6/0.2 µM, read-out: EC50 (µM) [conf. int.]), 1.4 µM. Also, the Emax on GluN1/GluN2A NMDARs (setting [3]) turned out to be 6%; at GluN1/GluN2A NMDARs (setting [4]) it was 37%; at GluN1/GluN2B NMDARs (setting [3]) it was 10%; at GluN1/GluN2B NMDARs (setting [4]), 28%.
Take `CCOC(=O)c1c(NC(=O)CC2SC(=N)NC2=O)sc2c1CCCC2` (stereo not shown) [EU1794-4, ethyl 2-(2-(2-imino-4-oxothiazolidin-5-yl)acetamido)-4,5,6,7-tetrahydrobenzo[b]thiophene-3-carboxylate]: the entries for the “Fold Difference (glutamate EC50)” value on GluN1/GluN2A NMDARs (control vs 10 µM EU1794-4) and on GluN1/GluN2B NMDARs (control vs 10 µM EU1794-4) were 2.4^† and 2.0^†, respectively. For the same molecule, the “Fold Difference (glycine EC50)” value was 2.8^† on GluN1/GluN2A NMDARs (control vs 10 µM EU1794-4) and 3.3^† on GluN1/GluN2B NMDARs (control vs 10 µM EU1794-4). Also, the half-maximal inhibitory concentration (IC50) was found to be 2.2 µM on GluN1/GluN2A NMDARs (setting [1]) and 2.6 µM at GluN1/GluN2B NMDARs (setting [5]). In addition, the EC50 at GluN1/GluN2A NMDARs (setting [2]) stood at 2.2 µM; at GluN1/GluN2A NMDARs (setting [7]) it was 3.9 µM; at GluN1/GluN2B NMDARs (setting [6]) it was 2.6 µM; at GluN1/GluN2B NMDARs (setting [8]) it was 4.3 µM. Moreover, the Emax turned out to be 32% at GluN1/GluN2A NMDARs (setting [3]), 500% on GluN1/GluN2A NMDARs (setting [7]), 67% at GluN1/GluN2B NMDARs (setting [3]) and 210% at GluN1/GluN2B NMDARs (setting [7]).
On to `CC(C)(C)OC(=O)c1c(NC(=O)CC2SC(=N)NC2=O)sc2c1CCCC2` (stereo not shown) [EU1794-27, tert-butyl 2-(2-(2-imino-4-oxothiazolidin-5-yl)acetamido)-4,5,6,7-tetrahydrobenzo[b]thiophene-3-carboxylate], for which the “Fold Difference (glutamate EC50)” value is reported as 2.3^† on GluN1/GluN2A NMDARs (control vs 10 µM EU1794-27) and 2.0^† at GluN1/GluN2B NMDARs (control vs 10 µM EU1794-27). Besides, the entries for the “Fold Difference (glycine EC50)” value at GluN1/GluN2A NMDARs (control vs 10 µM EU1794-27) and on GluN1/GluN2B NMDARs (control vs 10 µM EU1794-27) were 1.6 and 2.9^†, respectively. Also, the EC50 came to 7.4 µM on GluN1/GluN2A NMDARs (setting [2]); 8.1 µM at GluN1/GluN2A NMDARs (setting [9]); 6 µM at GluN1/GluN2B NMDARs (+EU1794-2 1 µM, glutamate/glycine 100/30 µM, read-out: EU1794-27 EC50 (µM) [conf. int.]); 8.4 µM on GluN1/GluN2B NMDARs (+EU1794-2 3 µM, glutamate/glycine 100/30 µM, read-out: EU1794-27 EC50 (µM) [conf. int.]); 1.4 µM at GluN1/GluN2B NMDARs (setting [6]); 6.3 µM on GluN1/GluN2B NMDARs (setting [8]). The Emax is 52% at GluN1/GluN2A NMDARs (setting [3]), 340% at GluN1/GluN2A NMDARs (setting [9]), 130% at GluN1/GluN2B NMDARs (setting [3]) and 400% on GluN1/GluN2B NMDARs (setting [7]).

(Values after publication PMC5967867, “An NMDAR positive and negative allosteric modulator series share a binding site and are interconverted by methyl groups” (eLife, 2018).)
